Read-outs that look alike come from different tables or passages of the source.
Key:
[1] = test system: cucumber leaves; conditions: Baktadagi, in vivo, 0 h
Procedure: (§1) (Step 1) Preparation of a solution containing agrochemicals and Congo Red
(§2) Since dimethomorph is not readily absorbed by the plant, 0.1% of stearylamine ethoxylate(SN, moles of ethylene oxide added: 10) was added as an adjuvant to enhance its foliar uptake.
(§3) Cucumber seeds(Baktadagi, Hung Nong Seed Co., Ltd., Korea) were sowed in disposable resin cup pots (id 47 mm×50 mm) at a density of three seeds per pot and cultivated in a greenhouse. Upon the complete development of cotyledons, the cucumber plants were each transplanted to a disposable resin cup pot(id 66 mm×h 66 mm) and cultivated in a greenhouse until the development of 4 to 5 leaves.
(§4) 18 pots of cucumber plants thus prepared were put in a spray booth and sprayed with the agrochemical solution prepared in (Step 1) in an amount of 80 l/ha. Further, 15 glass plates(10 cm×10 cm) were also sprayed with the same agrochemical solution prepared in (Step 1) in an amount of 80 l /ha.
(§5) Immediately after the spraying in (Step 2) , one leaf with its petiole attached was cut off from each of three cucumber plants, put in a test tube containing the appropriate washing solution and washed by agitating the tube with bottom-side up at 60 to 70 rpm for 2 minutes to obtain three wash extracts. Three glass plates were subjected to the same washing procedure in a petri dish(id 15.2 cm) to obtain three control wash extracts.
(§6) The remaining 15 cucumber plants and 12 glass plates were stored in the dark at room temperature, and the same washing procedure as above was repeated at 1 hour, 3 hours, 6 hours, 12 hours and 24 hours after the spraying.
(§7) The concentrations of the agrochemicals in the wash extracts were measured by HPLC(Spectra 200 Programmable Wavelength Detector, acetonitrile-water solvent programming, 42%-80%). The wash extracts obtained immediately after the spraying were used as standard solutions, and Congo Red, as an internal standard.

[2] = Glass plate control run of Example 3 (loss of dimethomorph other than by plant uptake); conditions: 24 hours after spraying, stored in the dark at room temperature
Source text: The use of a control plate serves the purpose of determining the loss of agrochemical due to reasons other than plant uptake.
(§8) Forum wettable powder(a 25% dimethomorph formulation, Dongbang Agro Co., Ltd., Korea) was dispersed in water and added thereto were one of the penetrant candidate materials listed in Table 4 and Congo Red to obtain an agrochemical solution containing dimethomorph, a penetrant candidate and Congo Red at concentrations of 250 ppm, 1,000 ppm and 200 ppm, respectively. A control containing no penetrant was also prepared.
The agrochemical solution and control thus prepared were sprayed on leaves of each of six cucumber plants having 4 to 5 leaves, as well as on six glass plates(10 cm×10 cm). Immediately after the spraying, the sprayed cucumber leaves from 3 cucumber plants and three glass plates were washed with 12 ml portion of 30% acetonitrile-aqueous solution for 3 minutes to obtain standard wash extracts and controls. […]
The concentrations of dimethomorph and Congo Red in the wash extracts were measured by HPLC(Spectra 200 Programmable Wavelength Detector, acetonitrile-water solvent programming, 42%-80%) . […] The foliar uptake rate of dimethomorph was calculated by comparing the concentrations of dimethomorph and Congo Red in the wash extracts obtained immediately after the spraying and at 24 hours after the spraying.

[3] = test system: rice plants; conditions: in vivo; for Time-dependent Uptake by Rice(%) (Mean ± S.D.(n = 3)) I.A. / Time-dependent Uptake by Rice(%) (Mean ± S.D.(n = 3)) after 1 hr / Time-dependent Uptake by Rice(%) (Mean ± S.D.(n = 3)) after 3 hrs / Time-dependent Uptake by Rice(%) (Mean ± S.D.(n = 3)) after 6 hrs / Time-dependent Uptake by Rice(%) (Mean ± S.D.(n = 3)) after 12 hrs / Time-dependent Uptake by Rice(%) (Mean ± S.D.(n = 3)) after 24 hrs: Dongjin byeo
[4] = test system: cucumber leaves; experiment: Foliar uptake of agrochemicals by cucumber plants (Congo Red tracer method); conditions: for Time-dependent Uptake by Cucumber(%) (Mean ± S.D.(n = 3)) after 24 hrs: 24 hrs after spraying
Procedure: as §1, §2, §3, §4, §5, §6, §7

[5] = test system: rice plants; conditions: in vivo
[6] = test system: cucumber leaves; experiment: Selection of a penetrant for the absorption of dimethomorph by cucumber leaves; conditions: 24 hours after spraying, dimethomorph 250 ppm (Forum wettable powder) + penetrant 1,000 ppm
Procedure: as §8
The agrochemical solution and control thus prepared were sprayed on leaves of each of six cucumber plants having 4 to 5 leaves, as well as on six glass plates(10 cm×10 cm). Immediately after the spraying, the sprayed cucumber leaves from 3 cucumber plants and three glass plates were washed with 12 ml portion of 30% acetonitrile-aqueous solution for 3 minutes to obtain standard wash extracts and controls.
The remaining three cucumber pots and three glass plates were stored in the dark at room temperature, and the same procedure was repeated at 24 hours after the spraying.
The concentrations of dimethomorph and Congo Red in the wash extracts were measured by HPLC(Spectra 200 Programmable Wavelength Detector, acetonitrile-water solvent programming, 42%-80%) . The wash extracts obtained immediately after the spraying were used as standard solutions, and Congo Red, as an internal standard. The foliar uptake rate of dimethomorph was calculated by comparing the concentrations of dimethomorph and Congo Red in the wash extracts obtained immediately after the spraying and at 24 hours after the spraying.

With `COc1ccc(C(=CC(=O)N2CCOCC2)c2ccc(Cl)cc2)cc1OC` [Dimethomorph, dimethomorph] the “Time-dependent Uptake by Cucumber(%) (Mean ± S.D.(n = 3)) I.A.” value [1] was 0 ± 0.7% and the “Uptake (%) of dimethomorph” value [2] was 0.0%.

For `CCOP(=O)(Sc1ccccc1)Sc1ccccc1` [Edifenphos, edifenphos], the “Time-dependent Uptake by Rice(%) (Mean ± S.D.(n = 3)) I.A.” value [3] was 0 ± 1.3%, the “Time-dependent Uptake by Rice(%) (Mean ± S.D.(n = 3)) after 1 hr” value [3] was 1.5 ± 1.1% and the “Time-dependent Uptake by Rice(%) (Mean ± S.D.(n = 3)) after 3 hrs” value [3] was 4.9 ± 0.7%. For the same compound, the “Time-dependent Uptake by Rice(%) (Mean ± S.D.(n = 3)) after 6 hrs” value [3] was 7.8 ± 0.4%, the “Time-dependent Uptake by Rice(%) (Mean ± S.D.(n = 3)) after 12 hrs” value [3] was 14.5 ± 1.3% and the “Time-dependent Uptake by Rice(%) (Mean ± S.D.(n = 3)) after 24 hrs” value [3] was 29.8 ± 1.9%. The “absorption by the rice plants (in words)” value [3] was “absorbed by the rice plants at a steady rate”.

In the case of `OC(c1ccc(Cl)cc1)(c1cncnc1)c1ccccc1Cl` (stereo not shown) [Fenarimol, fenarimol], the “Time-dependent Uptake by Cucumber(%) (Mean ± S.D.(n = 3)) after 1 hr” value ([4]; 1 hr after spraying, stored in the dark, dimethomorph with 0.1% stearylamine ethoxylate) is reported as 2.0 ± 8.1%, the “Time-dependent Uptake by Cucumber(%) (Mean ± S.D.(n = 3)) after 3 hrs” value ([4]; 3 hrs after spraying, stored in the dark, dimethomorph with 0.1% stearylamine ethoxylate) is reported as 3.2 ± 1.8% and the “Time-dependent Uptake by Cucumber(%) (Mean ± S.D.(n = 3)) after 6 hrs” value ([4]; 6 hrs after spraying, stored in the dark, dimethomorph with 0.1% stearylamine ethoxylate) is reported as 5.2 ± 2.5%. For the same compound, the “Time-dependent Uptake by Cucumber(%) (Mean ± S.D.(n = 3)) after 12 hrs” value ([4]; 12 hrs after spraying, stored in the dark, dimethomorph with 0.1% stearylamine ethoxylate) was 8.0 ± 4.1%, the “Time-dependent Uptake by Cucumber(%) (Mean ± S.D.(n = 3)) after 24 hrs” value ([4]; stored in the dark, dimethomorph with 0.1% stearylamine ethoxylate) was 15.1 ± 4.0% and the “Time-dependent Uptake by Cucumber(%) (Mean ± S.D.(n = 3)) after 24 hrs” value ([4]; stored in the dark, dimethomorph with 0.1% stearylamine ethoxylate, listed as fenarimol) was 15.1%. The “Time-dependent Uptake by Cucumber(%) (Mean ± S.D.(n = 3)) I.A.” value ([4]; immediately after the spraying, 80 l/ha, dimethomorph solution with 0.1% stearylamine ethoxylate) was 0 ± 3.1%.

For `CC(C)OC(=O)C(C(=O)OC(C)C)=C1SCCS1` [Isoprothiolane, isoprothiolane], the “Time-dependent Uptake by Rice(%) (Mean ± S.D.(n = 3)) I.A.” value [3] was 0 ± 1.0%, the “Time-dependent Uptake by Rice(%) (Mean ± S.D.(n = 3)) after 1 hr” value [3] was 7.9 ± 1.9% and the “Time-dependent Uptake by Rice(%) (Mean ± S.D.(n = 3)) after 3 hrs” value [3] was 11.6 ± 1.2%. The “Time-dependent Uptake by Rice(%) (Mean ± S.D.(n = 3)) after 6 hrs” value [3] was 16.1 ± 1.3%, the “Time-dependent Uptake by Rice(%) (Mean ± S.D.(n = 3)) after 12 hrs” value [3] was 27.8 ± 1.1% and the “Time-dependent Uptake by Rice(%) (Mean ± S.D.(n = 3)) after 24 hrs” value [3] was 47.1 ± 2.5%. The “absorption by the rice plants (in words)” value [3] was “absorbed by the rice plants at a steady rate”.

In the case of `CC12CC1(C)C(=O)N(c1cc(Cl)cc(Cl)c1)C2=O` (stereo not shown) [Procymidone, procymidone], the “Time-dependent Uptake by Cucumber(%) (Mean ± S.D.(n = 3)) I.A.” value [1] is reported as 0 ± 0.8%.

With `Cc1cccc2sc3nncn3c12` [Tricyclazole, tricyclazole] the “Recovery (%) of tricyclazole” value ([5]; rice) was 82.4%, the “Uptake (%) of tricyclazole” value ([5]; rice) was 17.6% and the “Time-dependent Uptake by Rice(%) (Mean ± S.D.(n = 3)) I.A.” value [3] was 0 ± 1.1%. The “Time-dependent Uptake by Rice(%) (Mean ± S.D.(n = 3)) after 1 hr” value [3] was 1.4 ± 0.7%, the “Time-dependent Uptake by Rice(%) (Mean ± S.D.(n = 3)) after 3 hrs” value [3] was 1.1 ± 1.5% and the “Time-dependent Uptake by Rice(%) (Mean ± S.D.(n = 3)) after 6 hrs” value [3] was 2.0 ± 1.4%. The “Time-dependent Uptake by Rice(%) (Mean ± S.D.(n = 3)) after 12 hrs” value [3] was 4.1 ± 0.5%, the “Time-dependent Uptake by Rice(%) (Mean ± S.D.(n = 3)) after 24 hrs” value [3] was 11.0 ± 0.9% and the “absorption by the rice plants (in words)” value [3] was “absorbed by the rice plants at a steady rate”.

With `CCCCC(CC)COC(=O)CC(C(=O)OCC(CC)CCCC)S(=O)(=O)[O-].[Na+]` (stereo not shown) [sodium dioctylsulfosuccinate] the “Recovery (%) of tricyclazole” value [5] was 79.1%, the “Uptake (%) of tricyclazole” value [5] was 20.9% and the “Recovery (%) of dimethomorph” value [6] was 94.5%. The “Uptake (%) of dimethomorph” value [6] was 5.5%.

In the case of “castor oil ethoxylate [castor oil ethoxylate(17)]”, the “Recovery (%) of tricyclazole” value [5] is reported as 63.7% and the “Uptake (%) of tricyclazole” value [5] is reported as 36.3%.

With “laurylamine ethoxylate [laurylamine ethoxylate(7)]” the “Recovery (%) of tricyclazole” value [5] was 35.4%, the “Uptake (%) of tricyclazole” value [5] was 64.6% and the “Recovery (%) of dimethomorph” value [6] was 96.3%. For the same compound, the “Uptake (%) of dimethomorph” value [6] was 3.7%.

In the case of “nonylphenol ethoxylate [nonylphenol ethoxylate(10)]”, the “Recovery (%) of tricyclazole” value [5] is reported as 80.6%, the “Uptake (%) of tricyclazole” value [5] is reported as 19.4% and the “Recovery (%) of dimethomorph” value [6] is reported as 99.8%. For the same compound, the “Uptake (%) of dimethomorph” value [6] was 0.2%.

With “stearylamine ethoxylate [stearylamine ethoxylate(10)]” the “Recovery (%) of tricyclazole” value [5] was 46.1%, the “Uptake (%) of tricyclazole” value [5] was 53.9% and the “Recovery (%) of dimethomorph” value [6] was 85.5%. The “Uptake (%) of dimethomorph” value [6] was 14.5%.

For “tridecyl alcohol ethoxylate [tridecyl alcohol ethoxylate(5)]”, the “Recovery (%) of tricyclazole” value [5] was 75.6%, the “Uptake (%) of tricyclazole” value [5] was 24.4% and the “Recovery (%) of dimethomorph” value [6] was 98.0%. For the same compound, the “Uptake (%) of dimethomorph” value [6] was 2.0%.
